Measured values reported in US20250346582A1, “SPLEEN TYROSINE KINASE INHIBITORS AND METHODS OF USE THEREOF” (THE BOARD OF TRUSTEES OF THE UNIVERSITY OF ILLINOIS, priority 2022, published 2025).

Key:
[1] = tested on: plasma membrane translocation of EGFP-Syk WT; experiment: Subcellular localization of EGFP-Syk WT in DT40 cells; format: cell-based, chicken; settings: IgM stimulation
Description: DT40-Syk^−/− cells transfected with EGFP-Syk WT (or K220/K222A) and mCherry-mCherry-eMyoX-tPH were imaged under 100× magnification with a Nikon Eclipse Ti2 microscope using the NIS element software. For IgM stimulation, cells were dropped on the IgM-coated surface (10 ng/ml) covered with the imaging buffer (HBSS pH 7.4, 2 mM MgCl2, 1% FBS) and incubated for 10 min before imaging. Pearson's correlation coefficient (y) was calculated using Coloc 2, which is a Fiji's plugin for colocalization analysis. The plasma membrane was selected as the region of interest for calculation of the coefficient. Averages ±s.d.'s of γ values were calculated from triplicate determinations.

Syk-cSH2 = molecular target: T1, Syk-cSH2 (Homo sapiens, UniProt P43405); experiment: Fluorescence quenching vesicle binding assay, Syk-cSH2; settings: for IC50: read-out: IC50
T1 construct: polyhistidine (N); made in house; host or cells: Escherichia coli BL21 (DE3) pLysS
Description: (§1) The membrane-binding assay is based on fluorescence quenching of EGFP fused to a SH2 domain by a dark quencher containing lipid, dabsyl-PE, incorporated in lipid vesicles. The plate reader assay was performed using the Synergy™ Neo spectrofluorometer at 25° C. Nontreated black polystyrene 96-well plates (Corning) were used. Protein (10-50 nM) with the increasing concentration of vesicles with a given lipid composition in 20 mM Tris buffer, pH 7.4, containing 0.16 M NaCl was added to each row of wells and the EGFP fluorescence emission at 516 nm was measured with excitation set at 485 nm. Z′ factor for the assay system was determined as described^74. Imax and IC50 values of inhibitors were determined using the equation, I=Imax/(1+IC50/[I]) where I and [I] indicate % inhibition and inhibitor concentration, respectively. The average and standard deviation values were obtained from triplicate determinations.
(§2) We also optimized a recently developed fluorescence quenching-based lipid-binding assay^47 for high-throughput screening of these molecules for their inhibitory activity against the PIP3-SH2 interaction. Specifically, we expressed SH2 domains as EGFP-tagged proteins and directly quantified their membrane binding by monitoring the quenching of EGFP fluorescence emission intensity by a dark quencher-containing lipid, N-dimethylaminoazo-benzenesulfonyl-phosphatidylethanolamine (dabsyl-PE), incorporated in the vesicles. We then screened for compounds that inhibited binding of Syk-cSH2, BLNK-SH2, and PLCγ2-cSH2, respectively, to 1-palmitoyl-2-oleoyl-PC (POPC)/1-palmitoyl-2-oleoyl-PS (POPS)/PIP3/dabsyl-PE (67:20:3:10) vesicles while eliminating those that inhibit their non-specific binding to anionic POPC/POPS/dabsyl-PE (70:20:10) vesicles. The quality of the screening system was evaluated using 1% dimethylsulfoxide (DMSO) and 20 μM D-myo-inositol-1,3,4,5-tetraphosphate (IP4) as negative and positive controls, respectively. The clear separation of positive and negative control data and the average Z′-factor of 0.7 supported the robustness of our system for high-throughput screen of PIP3-SH2 interaction inhibitors.

BLNK-SH2 = molecular target: T2, BLNK-SH2 (Homo sapiens, UniProt Q8WV28); experiment: Fluorescence quenching vesicle binding assay, BLNK-SH2; settings: Table 2, BLNK-SH2 binding to POPC/POPS/PIP3/dabsyl-PE vesicles; for Emax: read-out: Imax (%)
T2 construct: All SH2 domain constructs were cloned into the pRSET-B vector; polyhistidine (N); made in house; host or cells: Escherichia coli BL21 (DE3) pLysS
T2 sequence (Q8WV28 346-453 limits assumed): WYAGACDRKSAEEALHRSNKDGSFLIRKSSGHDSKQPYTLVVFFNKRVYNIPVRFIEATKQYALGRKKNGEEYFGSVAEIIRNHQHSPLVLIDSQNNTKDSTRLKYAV
Description: as §1, §2

PLCγ2-cSH2 = molecular target: T3, PLCγ2-cSH2 (Homo sapiens, UniProt P16885); experiment: Fluorescence quenching vesicle binding assay, PLCγ2-cSH2; settings: Table 2, PLCγ2-cSH2 binding to POPC/POPS/PIP3/dabsyl-PE vesicles; for Emax: read-out: Imax (%)
T3 construct: polyhistidine (N); made in house; host or cells: Escherichia coli BL21 (DE3) pLysS
T3 sequence (P16885 646-735 limits assumed): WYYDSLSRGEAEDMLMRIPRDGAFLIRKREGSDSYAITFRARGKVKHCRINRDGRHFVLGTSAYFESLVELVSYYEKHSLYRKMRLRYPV
Description: as §1, §2

[2] = tested on: BCR signaling axis (Syk-BLNK-PLCγ2); experiment: Western blot of BCR signaling axis in Raji B lymphocytes; format: cell-based; settings: Raji B cells
Description: (§3) Cells were seeded at a density of 3.0×10^5 cells/well prior to incubation with inhibitors. Cells were incubated with 1-5 μM of Syk inhibitors overnight and stimulated with different antibodies: IgG2 for AML cells, IgM for Raji B cells, and OKT3 (Biolegend) for Jurkat cells. The cells were lysed in NP40 lysis buffer (50 mM Tris, pH 7.5, 150 mM NaCl, 1 mM EDTA, 1% NP40, 10% glycerol, 10 mM NaF, 10 mM Na3VO4, and the protease inhibitor cocktail) at 4° C. and the cell debris was removed by centrifugation. Samples were analyzed by SDS-PAGE. Proteins were separated and transferred to Immobilon-P polyvinylidene difluoride membrane (Millipore Sigma). The membrane was blocked with 5% bovine serum albumin for 1 h and incubated overnight at 4° C. with various antibodies (1:1000 dilution for all antibodies). After the unbound antibodies were removed by washing with 0.1% Tris buffer saline with 0.1% Tween20, the membranes were incubated with the horseradish peroxidase secondary antibody (1:5000 dilution) for 1 h at room temperature. The membranes were washed three more times with 0.1% Tris buffer saline with 0.1% Tween20 to remove the unbound horseradish peroxidase secondary antibody before imaging. The chemiluminescence intensity of protein bands in the gel was analyzed and documented by the Azure 500Q Imaging System.

pZAP70 = molecular target: T4, pZAP70 (Homo sapiens, UniProt P43403); experiment: Western blot inhibition of ZAP70 phosphorylation in Jurkat T cells; format: cell-based; settings: Jurkat T cells stimulated by OKT3; 5 μM overnight
T4 construct: host or cells: Jurkat T cells, OKT3-stimulated
T4 sequence (P43403 1-619): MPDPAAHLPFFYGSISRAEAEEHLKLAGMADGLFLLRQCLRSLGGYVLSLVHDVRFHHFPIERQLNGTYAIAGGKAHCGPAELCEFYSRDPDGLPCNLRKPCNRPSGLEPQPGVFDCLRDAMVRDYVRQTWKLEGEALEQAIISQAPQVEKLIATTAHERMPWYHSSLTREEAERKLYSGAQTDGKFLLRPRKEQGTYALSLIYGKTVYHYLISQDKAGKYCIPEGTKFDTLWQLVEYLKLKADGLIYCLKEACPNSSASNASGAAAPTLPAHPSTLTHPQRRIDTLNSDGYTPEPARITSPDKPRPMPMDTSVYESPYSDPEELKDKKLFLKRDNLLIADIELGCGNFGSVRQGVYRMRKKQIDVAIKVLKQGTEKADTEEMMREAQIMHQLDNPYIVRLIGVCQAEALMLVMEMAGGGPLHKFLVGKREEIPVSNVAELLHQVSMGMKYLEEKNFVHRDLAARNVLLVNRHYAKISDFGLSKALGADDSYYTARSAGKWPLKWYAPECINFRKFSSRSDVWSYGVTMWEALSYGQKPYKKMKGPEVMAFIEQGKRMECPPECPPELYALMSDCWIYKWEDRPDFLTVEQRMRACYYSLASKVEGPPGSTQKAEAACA
Description: (a) Cellular efficacy of WC35, WC36, and WC38 was determined by dose-dependent inhibition of Syk phosphorylation in Raji B cells. (b) Imax and IC50 values were determined by non-linear least-squares analysis of data using the equation: […] Each data represents average ±s.d. from triplicate measurements. […] Jurkat T cells were stimulated by OKT3. Cells were seeded at a density of 3.0×10^5 cells/well prior to incubation with inhibitors. […] IgG2 for AML cells, IgM for Raji B cells, and OKT3 (Biolegend) for Jurkat cells. […] Samples were analyzed by SDS-PAGE. Proteins were separated and transferred to Immobilon-P polyvinylidene difluoride membrane (Millipore Sigma). […] The chemiluminescence intensity of protein bands in the gel was analyzed and documented by the Azure […] Imaging System.

[3] = tested on: phosphorylation of Syk, ERK1/2 and STAT3/5; experiment: Western blot of phosphorylation in entospletinib-resistant MV4-11 cells; format: cell-based; settings: 5 μM
Description: as §3
(§4) Then the concentration was maintained at 5 μM.

MV4-11 cells = experiment: Generation of drug-resistant MV4-11 cells under chronic treatment; format: cell-based; settings: inhibitor increased from 0.5 to 5 μM over 10 weeks
Description: as §4

[4] = tested on: phosphorylation of ERK1/2 and STAT3/5; experiment: Western blot of phosphorylation in HL60 cells; format: cell-based; settings: RAS-mutated HL60 cells; 5 μM
Description: FIGS. 3A-3D show the inhibition of the signaling activity and proliferation of HL-60 AML cells by Syk-cSH2 inhibitors. […] DMSO was used as a negative control and GAPDH as a gel loading control. […] (c) Inhibition of phosphorylation of Syk, STAT3/5 and ERK1/2 in patient-derived primary AML cells by WC36. Cells were cultured overnight in the presence of CD34+ cytokine supplement. DMSO was used as a negative control. Representative data from one (Patient 1) of four patient samples are shown here. (d) Inhibition of the proliferation of four patient AML cells by WC36 measured by the colony growth assay. The number of colonies after WC36 treatment was normalized to the enumerated colonies after DMSO treatment.
as §3

[5] = Table 2, Syk-cSH2 binding to POPC/POPS/PIP3/dabsyl-PE vesicles
[6] = Table 3, efficacy determined by the vesicle binding assay

Imax (%) (Syk-cSH2; [6])	IC50 (Syk-cSH2; [6]) [µM]	SMILES	also measured
Imax (%) ≤ 10	7	CCOC(=O)C(=[N+]=[N-])C(Nc1ccccn1)c1ccc(O)cc1 (stereo not drawn) [WC-111]	–
Imax (%) = 20	2	CCOC(=O)C(=[N+]=[N-])C(Nc1ncccn1)c1ccc(O)cc1 (stereo not drawn) [WC-115]	–
Imax (%) = 18	3.5	CCOC(=O)C(=[N+]=[N-])C(Nc1ccccn1)c1cccnc1 (stereo not drawn) [WC-128]	–

Further lines, the compound ahead of its results:

SMILES	Imax (%) (Syk-cSH2; [6])	IC50 (Syk-cSH2; [6]) [µM]	also measured
CS(=O)(=O)N1CCN(Cc2cc3nc(-c4cccc5[nH]ncc45)nc(N4CCOCC4)c3s2)CC1 [GDC-0941]	–	–	plasma membrane translocation of EGFP-Syk WT [1]: greatly suppressed
CCOC(=O)NC(C(=O)OCC)c1cccc(Cl)n1 (stereo not drawn) [VG370]	–	–	Imax (%) (Syk-cSH2; [5]): <10%; Emax (BLNK-SH2): < 20%; IC50 (PLCγ2-cSH2): 680 ± 50 nM; Emax (PLCγ2-cSH2): 40 to 50%; effect on phosphorylation of BCR signaling proteins (Syk, BLNK, PLCγ2) [2]: selectively suppressed phosphorylation of PLCγ2
OCCc1c(Cl)cncc1I [VG594]	–	–	Imax (%) (Syk-cSH2; [5]): <10%; IC50 (BLNK-SH2): 400 ± 30 nM; Emax (BLNK-SH2): 40 to 50%; Emax (PLCγ2-cSH2): < 10%; effect on phosphorylation of BCR signaling proteins (Syk, BLNK, PLCγ2) [2]: blocked the phosphorylation of BLNK and PLCγ2 without a significant effect on Syk phosphorylation
[N-]=[N+]=C(C(=O)OC1CCCC1)C(Nc1ccccn1)c1ccccc1 (stereo not drawn) [WC-118]	Imax (%) = 15	4	–
[N-]=[N+]=C(C(=O)OC1CCCC1)C(Nc1ncccn1)c1ccc(C(F)(F)F)cc1 (stereo not drawn) [WC-120]	Imax (%) = 20	4	–
CCOC(=O)C(=[N+]=[N-])C(Nc1ccccn1)c1ccc(C(F)(F)F)cc1 (stereo not drawn) [WC-121]	Imax (%) ≤ 10	4.8	–
[N-]=[N+]=C(C(=O)OC1CCCCC1)C(Nc1cnccn1)c1cccnc1 (stereo not drawn) [WC-125]	Imax (%) = 20	1.5	–
[N-]=[N+]=C(C(=O)OC1CCCCC1)C(Nc1ncccn1)c1ccncc1 (stereo not drawn) [WC-130]	Imax (%) = 25	2	–
[N-]=[N+]=C(C(=O)OC1CCCCC1)C(C=Cc1ccccc1)Nc1ncccn1 (stereo not drawn) [WC-132]	Imax (%) = 15	5	–
c1cn2cc(-c3ccc4cn[nH]c4c3)nc(Nc3ccc(N4CCOCC4)cc3)c2n1 [entospletinib, reference compound]	–	–	inhibition of ZAP-70 phosphorylation (pZAP70): significantly inhibited ZAP-70 phosphorylation; inhibition of phosphorylation of Syk, ERK1/2 and STAT3/5 [3]: could not inhibit phosphorylation of ERK1/2 and STAT3/5 in resistant MV4-11 cells while still potently inhibiting Syk phosphorylation; development of acquired resistance (MV4-11 cells): readily developing resistance to entospletinib; inhibition of phosphorylation of ERK1/2 and STAT3/5 [4]: could not suppress phosphorylation of ERK1/2 and STAT3/5
